The values below are quoted from earlier work in patent US11904118B2, “Drug delivery medical device” (Micell Medtech Inc., priority 2010, dated 2024).

This data set addresses FKBP12 (Homo sapiens, UniProt P62942).

Chain of FKBP12 (P62942 whole entry, species assumed): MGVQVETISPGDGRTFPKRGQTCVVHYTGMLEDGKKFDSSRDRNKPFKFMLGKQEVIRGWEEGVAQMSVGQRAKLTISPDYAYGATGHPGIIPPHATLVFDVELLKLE

Consider `CC[C@@H]1/C=C(\C)C[C@H](C)C[C@H](OC)[C@H]2O[C@@](O)(C(=O)C(=O)N3CCCC[C@H]3C(=O)O[C@H](/C(C)=C/[C@@H]3CC[C@H](Cl)[C@H](OC)C3)[C@H](C)[C@@H](O)CC1=O)[C@H](C)C[C@@H]2OC` [Pimecrolimus], for which the “FKBP12 binding (nM)” value is given as “about 1.2 nM”.

Turning to `CO[C@H]1C[C@@H]2CC[C@@H](C)[C@@](O)(O2)C(=O)C(=O)N2CCCC[C@H]2C(=O)O[C@H]([C@H](C)C[C@@H]2CC[C@H](n3cnnn3)[C@H](OC)C2)CC(=O)[C@H](C)/C=C(\C)[C@@H](O)[C@@H](OC)C(=O)[C@H](C)C[C@H](C)/C=C/C=C/C=C/1C` [Zotarolimus], the “FKBP12 binding” value was 2.0 to 3.2 nM.

For the molecule `CO[C@H]1C[C@@H]2CC[C@@H](C)[C@@](O)(O2)C(=O)C(=O)N2CCCC[C@H]2C(=O)O[C@H]([C@H](C)C[C@@H]2CC[C@@H](OCCO)[C@H](OC)C2)CC(=O)[C@H](C)/C=C(\C)[C@@H](O)[C@@H](OC)C(=O)[C@H](C)C[C@H](C)/C=C/C=C/C=C/1C` [Everolimus, 40-O-(2-Hydroxyethyl)rapamycin], the “FKBP12 binding” value is 1.8 to 2.6 nM. In the case of `C=CC[C@@H]1/C=C(\C)C[C@H](C)C[C@H](OC)[C@H]2O[C@@](O)(C(=O)C(=O)N3CCCC[C@H]3C(=O)O[C@H](/C(C)=C/[C@@H]3CC[C@@H](O)[C@H](OC)C3)[C@H](C)[C@@H](O)CC1=O)[C@H](C)C[C@@H]2OC` [Tacrolimus], the “FKBP12 binding” value was 0.2 to 0.4 nM.

Take `CO[C@H]1C[C@@H]2CC[C@@H](C)[C@@](O)(O2)C(=O)C(=O)N2CCCC[C@H]2C(=O)O[C@H]([C@H](C)C[C@@H]2CC[C@@H](OC(=O)C(C)(CO)CO)[C@H](OC)C2)CC(=O)[C@H](C)/C=C(\C)[C@@H](O)[C@@H](OC)C(=O)[C@H](C)C[C@H](C)/C=C/C=C/C=C/1C` [Temsirolimus, 42-[3-hydroxy-2-(hydroxymethyl)-2-methylpropanoate]rapamycin]: the “FKBP12 binding (nM)” value was “about the same as Sirolimus”.
